These results are taken from ChEMBL document CHEMBL3751779, “Amides of non-steroidal anti-inflammatory drugs with thiomorpholine can yield hypolipidemic agents with improved anti-inflammatory activity” (Bioorg Med Chem Lett, 2016).

Common to all, as to type: functional
For experiment [1], the system named is Rattus norvegicus. In words: Antihyperlipidemic activity in rat assessed as reduction of tyloxapol-induced plasma low density lipoprotein cholesterol level at 150 umol/kg, ip after 24 hrs relative to control.
Experiment [2] has as its system Rattus norvegicus. Description: Antihyperlipidemic activity in rat assessed as reduction of tyloxapol-induced plasma total cholesterol level at 150 umol/kg, ip after 24 hrs relative to control.
For experiment [3], the system named is Rattus norvegicus. Description: Antihyperlipidemic activity in rat assessed as reduction of tyloxapol-induced plasma triglyceride level at 150 umol/kg, ip after 24 hrs relative to control.
The test system of experiment [4] is Rattus norvegicus. In words: Anti-inflammatory activity in rat assessed as reduction of carrageenan-induced paw edema at 150 umol/kg, ip after 3.5 hrs relative to control. For orientation: Carrageenan injected into the paw causes an acute inflammation.

`O=C(c1ccccc1Nc1cccc(C(F)(F)F)c1)N1CCSCC1`: the inhibition in vivo – broadly, the drop in the measured response relative to a control, in per cent – at 150 µmol/kg in the experiment with Rattus norvegicus [1] was 64.2%; in the experiment on Rattus norvegicus [2], 52.8%; in the experiment with Rattus norvegicus [3], 54.1%; in the experiment on Rattus norvegicus [4], 44%.
The matching figures for `COc1ccc2c(c1)c(CC(=O)N1CCSCC1)c(C)n2C(=O)c1ccc(Cl)cc1`: 83%, 73%, 79.5% and 38%.
For `CC(C(=O)N1CCSCC1)c1cccc(C(=O)c2ccccc2)c1` (stereo unspecified), in that order: 64.9%, 49%, 43% and 60%.
For `O=C(CCCCC1CCSS1)N1CCSCC1` (stereo unspecified), the inhibition in vivo at 150 µmol/kg with Rattus norvegicus [4] came out at 59%.
As to `O=C(Cc1c[nH]c2ccccc12)N1CCSCC1`, the inhibition in vivo at 150 µmol/kg with Rattus norvegicus [4] is 29%.
Consider `Cc1c(Cl)cccc1Nc1ccccc1C(=O)O` [TOLFENAMIC ACID], for which the inhibition in vivo at 150 µmol/kg in the experiment on Rattus norvegicus [4] was determined as 24%.
Still for that read-out and setting: under `O=C(O)c1ccccc1Nc1cccc(C(F)(F)F)c1` [FLUFENAMIC ACID] stands 19%.
On to `Cc1cccc(Nc2ccccc2C(=O)N2CCSCC2)c1C`, for which the inhibition in vivo at 150 µmol/kg came to 71.3% in the experiment with Rattus norvegicus [1], 80.5% in the experiment with Rattus norvegicus [2], 81.5% with Rattus norvegicus [3] and 46% in the experiment on Rattus norvegicus [4].
For `Cc1c(Cl)cccc1Nc1ccccc1C(=O)N1CCSCC1`, in that order: 70.5%, 65.9%, 80% and 45%.
As to `COc1ccc2cc([C@H](C)C(=O)O)ccc2c1` [NAPROXEN], the inhibition in vivo at 150 µmol/kg in the experiment with Rattus norvegicus [4] was 11%.
On the same count and under the same terms, under `Cc1cccc(Nc2ccccc2C(=O)O)c1C` [MEFENAMIC ACID] stands 44%; under `COc1ccc2c(c1)c(CC(=O)O)c(C)n2C(=O)c1ccc(Cl)cc1` [INDOMETHACIN], 42%.
`CC(C)Cc1ccc(C(C)C(=O)N2CCSCC2)cc1` (stereo unspecified): the inhibition in vivo at 150 µmol/kg in the experiment with Rattus norvegicus [1] came out at 57.6%; with Rattus norvegicus [2], 60.3%; in the experiment on Rattus norvegicus [3] it was 64.2%; with Rattus norvegicus [4], 41%.
As for `O=C(O)Cc1ccccc1Nc1c(Cl)cccc1Cl` [DICLOFENAC], the inhibition in vivo at 150 µmol/kg in the experiment on Rattus norvegicus [4] turned out to be 37%.
Still for that read-out and setting: under `CC(C)Cc1ccc(C(C)C(=O)O)cc1` (stereo unspecified) [IBUPROFEN] stands 36%.
As to `COc1ccc2cc(C(C)C(=O)N3CCSCC3)ccc2c1` (stereo unspecified), the inhibition in vivo at 150 µmol/kg in the experiment on Rattus norvegicus [1] turned out to be 81.4%; in the experiment with Rattus norvegicus [2] it was 57.8%; with Rattus norvegicus [3] it was 61.3%; in the experiment with Rattus norvegicus [4], 62%.
For `O=C(Cc1ccccc1Nc1c(Cl)cccc1Cl)N1CCSCC1`, in that order: 70.8%, 44.1%, 46.4% and 40%.
